Like-named read-outs stand apart in the source and are kept apart here.
Assays:
[1] = tested on: wt-TMD8 diffuse large B-cell lymphoma cells; test: Cell proliferation assay wt-TMD8 (ATPlite, 120 hours); assay type: cell-based; conditions: B-cell; wt-TMD8 cells, 120 hours, ATPlite; read-out: IC50 wt-TMD8
Experimental: Cell proliferation assay wt-TMD8 diffuse large B-cell lymphoma cells were purchased from Tokyo Medical and Dental University and cultured in RPMI-1640 cell culture medium (cat. no. 61870036, Life Technologies), supplemented with 10% (v/v) heat-inactivated fetal bovine calf serum and 1% penicillin/[…]. 1600 cells per well (in 45 μl) were seeded in a white 384-well culture plate (cat. no. 781080, Greiner Bio-One) and allowed to rest for at least 5 hours at 37° C., 95% humidity, and 5% CO2. 5 μl compound solution was added to the cells and incubation was continued for 120 hours (5 days), followed by addition of 24 μl ATPlite 1Step™ (PerkinElmer, Groningen, The Netherlands) solution was added to each well. Luminescence was recorded on an Envision multimode reader. The cell signal at the start of incubation was recorded separately in order to distinguish between cell population growth and cell death. In addition, maximum growth was determined by incubation of a duplicate without compound in the presence of 0.3% DMSO. Percentage growth was used as the main y-axis signal.

[2] = tested on: REC-1 T474I cell lines; test: Cell proliferation assay REC-1 BTK T474I knock-in cells (ATPlite, 72 hours); assay type: cell-based; conditions: Homo sapiens, Rec1; 72 hours; read-out: IC50 REC-1 T474I
Experimental: Cell proliferation assay Generation of BTK […] knock-in cell lines wt-REC-1 cell lines expressing mutant BTK were created at Synthego Corporation. Cell lines expressing BTK […] was generated via CRISPR/Cas9. Monoclonal REC-1 […] cell lines were obtained by single cell cloning. The mutation status of all cell lines was confirmed via sequencing. […] Luminescence was recorded on an Envision multimode reader. The cell signal at the start of incubation was recorded separately in order to distinguish between cell population growth and cell death. In addition, maximum growth was determined by incubation of a duplicate without compound in the presence of 0.3% DMSO. Percentage growth was used as the main y-axis signal.

[3] = target: full-length wt-BTK enzyme (Homo sapiens (Human), UniProt Q06187); test: Biochemical kinase assay wt-BTK (IMAP)
Chain of full-length wt-BTK enzyme (Q06187 whole entry): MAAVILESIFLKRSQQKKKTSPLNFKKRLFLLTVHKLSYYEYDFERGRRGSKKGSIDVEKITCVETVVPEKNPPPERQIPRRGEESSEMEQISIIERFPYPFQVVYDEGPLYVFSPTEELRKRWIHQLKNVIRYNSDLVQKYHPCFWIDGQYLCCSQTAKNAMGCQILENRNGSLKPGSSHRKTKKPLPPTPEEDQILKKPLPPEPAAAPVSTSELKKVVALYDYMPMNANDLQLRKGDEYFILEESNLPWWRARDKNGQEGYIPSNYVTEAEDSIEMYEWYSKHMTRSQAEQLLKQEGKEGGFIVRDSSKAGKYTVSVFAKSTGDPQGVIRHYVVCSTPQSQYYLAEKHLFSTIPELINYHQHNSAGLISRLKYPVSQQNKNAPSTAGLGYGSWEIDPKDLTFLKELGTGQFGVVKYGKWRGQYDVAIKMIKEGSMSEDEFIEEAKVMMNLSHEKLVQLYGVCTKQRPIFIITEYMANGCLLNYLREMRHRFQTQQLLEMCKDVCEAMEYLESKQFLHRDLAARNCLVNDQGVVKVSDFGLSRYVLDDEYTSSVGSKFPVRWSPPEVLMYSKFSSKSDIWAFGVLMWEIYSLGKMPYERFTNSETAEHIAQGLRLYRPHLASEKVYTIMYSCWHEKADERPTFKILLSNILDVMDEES
Experimental: Biochemical kinase assay wt-BTK To determine the inhibitory activity of compounds on wt-BTK enzyme activity, the IMAP® assay (Molecular Devices) was used. […] After pre-incubation of 1 hour in the dark at room temperature, fluorescein-labeled MBP-derived substrate peptide (Molecular Devices, cat. no. RP 7123) was added, followed by ATP to start the reaction. Final enzyme concentration was 1.2 nM, final substrate concentration 50 nM, and final ATP concentration was 4 μM. The reaction was allowed to proceed for 2 hours at room temperature in the dark. The reaction was stopped by quenching with IMAP progressive binding solution according to the protocol of the manufacturer (Molecular Devices). Fluorescein polarization was measured on an Envision multimode reader (Perkin Elmer, Waltham, MA, U.S.A.). […] Results of the wt-BTK binding affinity are shown in Table 1 below. • IC50 wt-BTK: […]

[4] = target: full-length BTK C481S enzyme (Homo sapiens (Human), UniProt Q06187, C481S); test: Biochemical kinase assay BTK C481S (IMAP)
Chain of full-length BTK C481S enzyme (Q06187 whole entry C481S): as the sequence (Q06187 whole entry) above, with C481S counted along it
Experimental: Biochemical kinase assay BTK […] To determine the inhibitory activity of compounds on BTK C481S enzyme activity, the IMAP® assay (Molecular Devices) was used. […] After pre-incubation of 1 hour in the dark at room temperature, fluorescein-labeled MBP-derived substrate peptide (Molecular Devices, cat. no. RP 7123) was added, followed by ATP to start the reaction. Final enzyme concentration was 1.2 nM final substrate concentration 50 nM, and final ATP concentration was 7 μM. The reaction was allowed to proceed for 2 hours at room temperature in the dark. The reaction was stopped by quenching with IMAP progressive binding solution according to the protocol of the manufacturer (Molecular Devices). Fluorescein polarization was measured on an Envision multimode reader (Perkin Elmer, Waltham, MA, U.S.A.). IC50 were calculated using XLfitTM5 software (ID Business Solutions, Ltd., Surrey, U.K.). Results of the BTK […] binding affinity are shown in Table 1 below. • IC50 BTK […]: […]

[5] = tested on: wt-REC-1 mantle cell lymphoma cells; test: Cell proliferation assay wt-REC-1 (ATPlite, 72 hours); assay type: cell-based; conditions: read-out: IC50 wt-REC-1
Experimental: Results of the BTK […] binding affinity are shown in Table 1 below. • IC50 BTK […]: […] wt-REC-1 mantle cell lymphoma cells were purchased from American Type Culture Collection via Synthego Corporation (cat. no. CRL-3004, ATCC). […] Luminescence was recorded on an Envision multimode reader. The cell signal at the start of incubation was recorded separately in order to distinguish between cell population growth and cell death. In addition, maximum growth was determined by incubation of a duplicate without compound in the presence of 0.3% DMSO. Percentage growth was used as the main y-axis signal. IC50s were fitted by non-linear regression using IDBS XLfitTM5 using a 4-parameter logistic curve, yielding a maximum signal, minimum signal, hill-parameter and IC50. Results of the wt-REC-1 proliferation are shown in Table 1 below. • IC50 wt-REC-1: […]

Compound: CN1CCCCc2cnc(N)c3c(-c4ccc(C(=O)Nc5cc(C(F)(F)F)ccn5)cc4)nn(c23)[C@@H]2CCC[C@H](C2)C(=O)NCC1 [Example 140]
- IC50 [1]: < 100 nM
- IC50 [2]: 500 to 10000 nM
- IC50 [3]: < 5 nM
- IC50 [4]: < 5 nM
- IC50 ([5]; 72 h): 1000 to 10000 nM

Compound: C[C@@H]1CC(=O)N[C@@H]2CC[C@H](C2)c2nc(-c3ccc(C(=O)Nc4cc(C#N)ccn4)cc3)c3c(N)ncc(n23)/C=C/CCN1 [Example 208]
- IC50 [1]: < 100 nM
- IC50 [2]: 500 to 10000 nM
- IC50 [3]: < 5 nM
- IC50 [4]: < 5 nM
- IC50 ([5]; 72 hours): 1000 to 10000 nM

Compound: Nc1ncc2c3c1c(-c1ccc(C(=O)Nc4ccccn4)cc1)nn3[C@@H]1CCC[C@H](C1)C(=O)NCCCCCCCCC2 [Example 123]
- IC50 [1]: < 100 nM
- IC50 [2]: 500 to 10000 nM
- IC50 [3]: < 5 nM
- IC50 [4]: < 5 nM
- IC50 ([5]; 72 h): 100 to 1000 nM

Compound: Nc1ncc2c3c1c(-c1ccc(C(=O)Nc4cc(C(F)(F)F)ccn4)cc1)nn3[C@@H]1CCC[C@H](C1)NC(=O)CCCCC/C=C/2 [Example 37]
- IC50 [1]: < 100 nM
- IC50 [2]: < 100 nM
- IC50 [3]: < 5 nM
- IC50 [4]: < 5 nM
- IC50 ([5]; 72 h): < 100 nM

Compound: Nc1ncc2c3c1c(-c1ccc(C(=O)Nc4cc(C(F)(F)F)ccn4)cc1)nn3[C@@H]1CCC[C@H](C1)NC(=O)CCCCCC/C=C/2 [Example 16]
- IC50 [1]: < 100 nM
- IC50 [2]: < 100 nM
- IC50 [3]: < 5 nM
- IC50 [4]: < 5 nM
- IC50 ([5]; 72 h): < 100 nM

Compound: [2H]C1CCCCNC(=O)[C@@H]2CCC[C@H](C2)n2nc(-c3ccc(C(=O)Nc4cc(C(F)(F)F)ccn4)cc3)c3c(N)ncc(c32)C1[2H] (stereo partly drawn) [Example 128]
- IC50 [1]: < 100 nM
- IC50 [2]: 100 to 500 nM
- IC50 [3]: < 5 nM
- IC50 [4]: < 5 nM
- IC50 ([5]; 72 h): 100 to 1000 nM

Compound: CC1NC/C=C/c2cnc(N)c3c(-c4ccc(C(=O)Nc5cc(C(F)(F)F)ccn5)cc4)nn(c23)[C@@H]2CCC[C@H](C2)NC1=O (stereo partly drawn) [Example 145]
- IC50 [1]: < 100 nM
- IC50 [2]: 500 to 10000 nM
- IC50 [3]: < 5 nM
- IC50 [4]: < 5 nM
- IC50 ([5]; 72 h): 1000 to 10000 nM

Compound: Nc1ncc2c3c1c(-c1ccc(C(=O)Nc4cc(C(F)(F)F)ccn4)cc1)nn3[C@@H]1CCC[C@H](C1)NC(=O)[C@H]1CCN1CC/C=C/2 [Example 42]
- IC50 [1]: < 100 nM
- IC50 [2]: 100 to 500 nM
- IC50 [3]: < 5 nM
- IC50 [4]: < 5 nM
- IC50 ([5]; 72 h): < 100 nM

Compound: C[C@@H]1CC(=O)N[C@@H]2CCC[C@H](C2)c2nc(-c3ccc(C(=O)Nc4cc(C#N)ccn4)cc3)c3c(N)ncc(n23)/C=C/CCN1 [Example 206]
- IC50 [1]: < 100 nM
- IC50 [2]: 500 to 10000 nM
- IC50 [3]: < 5 nM
- IC50 [4]: < 5 nM
- IC50 ([5]; 72 h): < 100 nM

Compound: C[C@@H]1CCn2nc(-c3ccc(C(=O)Nc4cc(C(F)(F)F)ccn4)cc3)c3c(N)ncc(c32)/C=C/CCN2CC[C@@H]2C(=O)N1 [Example 74]
- IC50 [1]: < 100 nM
- IC50 [2]: 500 to 10000 nM
- IC50 [3]: < 5 nM
- IC50 [4]: < 5 nM
- IC50 ([5]; 72 h): 100 to 1000 nM

Compound: Nc1ncc2c3c1c(-c1ccc(C(=O)Nc4ccccn4)cc1)nn3[C@@H]1CCC[C@H](C1)NC(=O)COC/C=C\C2 [Example 104b]
- IC50 [1]: 100 to 1000 nM
- IC50 [2]: 500 to 10000 nM
- IC50 [3]: 50 to 500 nM
- IC50 [4]: 5 to 50 nM
- IC50 ([5]; 72 h): 100 to 1000 nM

Compound: CC1NC/C=C/c2cnc(N)c3c(-c4ccc(C(=O)Nc5cc(C(F)(F)F)ccn5)cc4)nn(c23)CC[C@@H](C)NC1=O (single isomer, unassigned) [Example 143]
- IC50 [1]: < 100 nM
- IC50 [2]: 500 to 10000 nM
- IC50 [3]: < 5 nM
- IC50 [4]: < 5 nM
- IC50 ([5]; 72 hours): 100 to 1000 nM

Compound: Nc1ncc2n3c(nc(-c4ccc(C(=O)Nc5cc(C(F)(F)F)ccn5)cc4)c13)[C@@H]1CC[C@H](C1)NC(=O)CNCC/C=C/2 [Example 209]
- IC50 [1]: < 100 nM
- IC50 [2]: 500 to 10000 nM
- IC50 [3]: < 5 nM
- IC50 [4]: < 5 nM
- IC50 ([5]; 72 h): < 100 nM

Compound: COc1cc(-c2nn3c4c(cnc(N)c24)/C=C/CCN[C@H](C)CC(=O)N[C@@H]2CCC[C@@H]3C2)ccc1C(=O)Nc1cc(C(F)(F)F)ccn1 [Example 194]
- IC50 [1]: < 100 nM
- IC50 [2]: 500 to 10000 nM
- IC50 [3]: < 5 nM
- IC50 [4]: < 5 nM
- IC50 ([5]; 72 h): < 100 nM

Compound: CC(=O)N1CC/C=C/c2cnc(N)c3c(-c4ccc(C(=O)Nc5cc(C(F)(F)F)ccn5)cc4)nn(c23)[C@@H]2CCC[C@H](C2)NC(=O)CC1 [Example 36]
- IC50 [1]: < 100 nM
- IC50 [2]: 100 to 500 nM
- IC50 [3]: < 5 nM
- IC50 [4]: < 5 nM
- IC50 ([5]; 72 h): < 100 nM

Compound: Nc1ncc2c3c1c(-c1ccc(C(=O)Nc4ccccn4)cc1)nn3[C@@H]1CCC[C@H](C1)NC(=O)CCC/C=C\C2 [Example 99b]
- IC50 [1]: < 100 nM
- IC50 [2]: 500 to 10000 nM
- IC50 [3]: 5 to 50 nM
- IC50 [4]: 5 to 50 nM
- IC50 ([5]; 72 h): 100 to 1000 nM

Compound: Nc1ncc2c3c1c(-c1ccc(C(=O)Nc4cc(C(F)(F)F)ccn4)cc1)nn3[C@@H]1CCC[C@H](C1)NC(=O)CCCNC/C=C/2 [Example 15]
- IC50 [1]: < 100 nM
- IC50 [3]: < 5 nM
- IC50 [4]: < 5 nM
- IC50 ([5]; 72 h): 100 to 1000 nM

Compound: Nc1ncc2c3c1c(-c1ccc(C(=O)Nc4ccccn4)cc1)nn3[C@@H]1CCC[C@H](C1)NC(=O)CCC/C=C/C2 [Example 99a]
- IC50 [2]: 500 to 10000 nM
- IC50 [3]: 50 to 500 nM
- IC50 [4]: 50 to 500 nM
- IC50 ([5]; 72 h): 1000 to 10000 nM

Compound: Nc1ncc2c3c1c(-c1ccc(C(=O)Nc4ccccn4)cc1)nn3[C@@H]1CCC[C@H](C1)NC(=O)CC/C=C/C2 [Example 96a]
- IC50 [2]: 500 to 10000 nM
- IC50 [3]: 50 to 500 nM
- IC50 [4]: 50 to 500 nM
- IC50 ([5]; 72 h): 1000 to 10000 nM

Compound: C[C@@H]1CCn2nc(-c3ccc(C(=O)Nc4cc(C(F)(F)F)ccn4)cc3)c3c(N)ncc(c32)/C=C/CNCCCC(=O)N1 [Example 67]
- IC50 [2]: 500 to 10000 nM
- IC50 [3]: < 5 nM
- IC50 [4]: < 5 nM
- IC50 ([5]; 72 h): 1000 to 10000 nM
